{"source": "paper PMC7885310", "about": "(3 Biotech, 2021)", "tested_on": "Gram-positive and Gram-negative bacteria", "assay": "In vitro antibacterial assay, pooled statement over all tested strains", "type": "cell-based, S. aureus, B. subtilis, S. typhi, E. coli"}
{"smiles": "O=c1c(O)c(-c2ccc(O)c(O)c2)oc2cc(O)cc(O)c12", "note": "[Compound 1, quercetin]", "values": [{"measurement": "MIC", "value": "0.0692 to 0.151", "unit": "µM"}]}
{"smiles": "O=c1c(O)c(-c2ccc(O)cc2)oc2cc(O)cc(O)c12", "note": "[Compound 3, kaempferol]", "values": [{"measurement": "MIC", "value": "> 100", "unit": "µg/mL"}]}
